For this experiment, the target named is T1, KIT V559D T670I (Homo sapiens, UniProt P10721, T670I/V559D).
T1 construct: purchased Thermo Fisher Scientific (Life Technologies) SelectScreen
The experiment is described as follows: SelectScreen LanthaScreen. The note with it: read-out: % displacement. In kind it is binding. An outline of the steps: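 NU5455 was profiled across the SelectScreen Broad panel of kinase activity and binding assays. Z'LYTE reactions such as CSF1R ran at apparent Km ATP, while the Adapta CAMK1 assay used ATP listed as 10. Values are given as percent.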
(In TR-FRET formats the signal depends on donor and acceptor labels being close together.)

SMILES strings stand for the structures.

T1 sequence (P10721 26-976 V559D/T670I): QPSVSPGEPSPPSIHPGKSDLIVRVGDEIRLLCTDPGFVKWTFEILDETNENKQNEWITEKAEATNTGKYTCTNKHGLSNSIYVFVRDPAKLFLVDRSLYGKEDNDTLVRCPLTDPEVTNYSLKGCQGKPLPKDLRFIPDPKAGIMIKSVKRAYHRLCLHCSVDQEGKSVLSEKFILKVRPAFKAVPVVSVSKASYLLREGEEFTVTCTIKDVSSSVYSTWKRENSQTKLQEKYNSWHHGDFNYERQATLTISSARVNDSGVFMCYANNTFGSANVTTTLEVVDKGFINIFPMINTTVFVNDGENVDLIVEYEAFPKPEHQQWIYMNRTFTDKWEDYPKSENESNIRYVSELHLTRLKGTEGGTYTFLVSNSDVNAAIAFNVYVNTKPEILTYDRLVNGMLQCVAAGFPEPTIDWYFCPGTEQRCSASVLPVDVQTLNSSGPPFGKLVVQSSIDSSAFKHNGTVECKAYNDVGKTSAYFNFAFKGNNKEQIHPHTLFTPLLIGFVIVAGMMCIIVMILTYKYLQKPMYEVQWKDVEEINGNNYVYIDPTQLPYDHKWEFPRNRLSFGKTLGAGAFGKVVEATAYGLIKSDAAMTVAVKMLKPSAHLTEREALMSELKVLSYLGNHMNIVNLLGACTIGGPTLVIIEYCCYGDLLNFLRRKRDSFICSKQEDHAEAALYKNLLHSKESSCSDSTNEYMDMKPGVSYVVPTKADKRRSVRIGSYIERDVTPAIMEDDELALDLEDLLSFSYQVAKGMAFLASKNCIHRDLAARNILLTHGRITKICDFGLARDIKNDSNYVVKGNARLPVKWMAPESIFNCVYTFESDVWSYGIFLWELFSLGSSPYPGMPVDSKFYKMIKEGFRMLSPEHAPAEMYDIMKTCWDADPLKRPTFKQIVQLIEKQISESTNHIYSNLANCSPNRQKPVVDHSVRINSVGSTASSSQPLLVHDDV

As for `CN(C(=O)CN1CCOCC1)c1ccc2sc3c(-c4cccc5c(=O)cc(N6CC7CCC(C6)O7)oc45)cccc3c2c1` [NU5455], the inhibition at 1 µM came out at 3.1%.

The values above are taken from PMC6934184, “Selective DNA-PKcs inhibition extends the therapeutic index of localized radiotherapy and chemotherapy” (The Journal of Clinical Investigation, 2019).
